# Source: patent US20250312499A1, “KISSPEPTIN RECEPTOR (KISS1R) TARGETED THERAPEUTICS AND USES THEREOF” (priority 2024, published 2025)
# Numbered stars: 1 amine (or outer) side, 2 acyl side, 3 side chain; on linkers, the order of the positions; unused ones are H or OH. Square brackets hold non-standard residues; d marks the D form. Peptide text beside a SMILES is read from it. * marks the point of attachment. DOTA = O=C(O)CN1CCN(CC(=O)O)CCN(CC(=O)*)CCN(CC(=O)O)CC1; Gly(N-(3-F-4-Me-benzyl)) = Cc1ccc(CNCC(=O)*)cc1F; Gly(N-3-F-4-Me-benzyl) = Cc1ccc(CNCC(=O)O)cc1F; Gly(Nα-4-MeO-benzyl) = COc1ccc(CNCC(=O)*)cc1; Api(1-amidino) = N=C(N)N1CCC(N)(C(=O)O)CC1; Hydrocinnamoyl(4-Me) = Cc1ccc(CCC(=O)*)cc1; Gly(Nα-CH2(4-Pyr)) = O=C(O)CNCc1ccncc1; d2Nal = N[C@H](Cc1ccc2ccccc2c1)C(=O)O; X1 = O=C(CN1CCC(N[*:1])CC1)[*:2]; 4Pal = N[C@@H](Cc1ccncc1)C(=O)O; d4Pal = N[C@H](Cc1ccncc1)C(=O)O; Cha = N[C@@H](CC1CCCCC1)C(=O)O; Octanoyl = CCCCCCCC(=O)*; Api = NC1(C(=O)O)CCNCC1; PEG2 = NCCOCCOCCC(=O)O; Ahx = NCCCCCC(=O)O; azaGly = NNC(=O)O; Sar = CNCC(=O)O
# Molecular target: human kisspeptin receptor (Homo sapiens (Human), UniProt Q969F8)
# Sequence (Q969F8 whole entry): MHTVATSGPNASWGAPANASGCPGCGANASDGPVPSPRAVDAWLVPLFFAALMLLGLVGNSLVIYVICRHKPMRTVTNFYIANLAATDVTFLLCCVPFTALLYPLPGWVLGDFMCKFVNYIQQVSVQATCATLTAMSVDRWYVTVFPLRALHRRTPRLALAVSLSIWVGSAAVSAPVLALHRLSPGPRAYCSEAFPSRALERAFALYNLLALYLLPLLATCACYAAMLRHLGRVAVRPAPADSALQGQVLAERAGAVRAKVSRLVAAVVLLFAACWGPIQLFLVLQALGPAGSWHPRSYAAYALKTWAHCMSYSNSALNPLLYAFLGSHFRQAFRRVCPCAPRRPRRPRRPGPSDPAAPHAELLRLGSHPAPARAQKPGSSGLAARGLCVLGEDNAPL
# Test: Human KISS1R binding assay (membrane competition binding)
# Details: 90 min at room temperature; competition with 0.2 nM [125I]-metastin (45-54); Flp-In T-Rex 293 kisspeptin membranes; metal complexes nonradioactive Ga, In, Lu; read-out: hKiSSR Binding Ki (90 min)
# Outline: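 Membranes from tetracycline-induced (48 h) Flp-In T-Rex 293 cells expressing receptor, 5–10 μg, incubated 90 min at room temperature with 0.2 nM [125I]-metastin (45-54) and competitor (typically 0–10,000 nM) in Tris/Mg/Ca/EGTA/0.1% BSA, pH 7.4. Filtration, washing, counting; Ki by non-linear regression.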
row,SMILES,Ki [nM]
1,CNCC(=O)N1CCC(NC(=O)[C@H](CC(C)C)NC(=O)NNC(=O)[C@H](Cc2ccccc2)NC(=O)[C@@H](NC(=O)[C@H](CC(N)=O)NC(=O)[C@H](CCCCNC(=O)CN2CCN(CC(=O)O)CCN(CC(=O)O)CCN(CC(=O)O)CC2)NC(=O)[C@@H](Cc2ccc(O)cc2)NC(=O)CCOCCOCCNC(=O)CNCc2ccc(C)c(F)c2)[C@@H](C)O)(C(=O)N[C@@H](Cc2c[nH]c3ccccc23)C(N)=O)CC1 [Compound 384] (H-[Gly(N-3-F-4-Me-benzyl)][PEG2][dY]K(DOTA)NTF[azaGly]L[Api](Sar)W-NH2),< 10
2,CC(C)C[C@H](NC(=O)NNC(=O)[C@H](Cc1ccccc1)NC(=O)[C@@H](NC(=O)[C@H](CC(N)=O)NC(=O)[C@@H](Cc1ccc2ccccc2c1)NC(=O)[C@@H](Cc1ccc(O)cc1)NC(=O)CCCCCNC(=O)CN1CCN(CC(=O)O)CCN(CC(=O)O)CCN(CC(=O)O)CC1)[C@@H](C)O)C(=O)NC1(C(=O)N[C@H](Cc2c[nH]c3ccccc23)C(N)=O)CCN(C(=O)CNCc2ccncc2)CC1 [Compound 370] ({DOTA-Ahx}-[dY][d2Nal]NTF[azaGly]L[Api](Gly(Nα-CH2(4-Pyr)))[dW]-NH2),> 100
3,Cc1ccc(CCC(=O)NCCOCCOCCC(=O)N[C@H](Cc2ccc(O)cc2)C(=O)N[C@@H](CCCCNC(=O)CN2CCN(CC(=O)O)CCN(CC(=O)O)CCN(CC(=O)O)CC2)C(=O)N[C@@H](CC(N)=O)C(=O)N[C@H](C(=O)N[C@@H](Cc2ccccc2)C(=O)NNC(=O)N[C@@H](CC(C)C)C(=O)NC2(C(=O)N[C@@H](Cc3c[nH]c4ccccc34)C(N)=O)CCN(C(=N)N)CC2)[C@@H](C)O)cc1 [Compound 195] ({Hydrocinnamoyl(4-Me)-PEG2}-[dY]K(DOTA)NTF[azaGly]L[Api(1-amidino)]W-NH2),< 10
4,CCCCCCCC(=O)N[C@H](Cc1ccc(O)cc1)C(=O)N[C@H](Cc1c[nH]c2ccccc12)C(=O)N[C@@H](CC(N)=O)C(=O)N[C@H](C(=O)N[C@@H](CC1CCCCC1)C(=O)NNC(=O)N[C@@H](CC(C)C)C(=O)NC1(C(=O)N[C@@H](Cc2c[nH]c3ccccc23)C(N)=O)CCN(C(=O)CNCc2ccc(C)c(F)c2)CC1)[C@@H](C)O [Compound 405] (Octanoyl-[dY][dW]NT[Cha][azaGly]L[Api](Gly(N-(3-F-4-Me-benzyl)))W-NH2),< 10
5,CC(C)C[C@H](NC(=O)NNC(=O)[C@H](Cc1ccccc1)NC(=O)CCCCCNC(=O)CN1CCN(CC(=O)O)CCN(CC(=O)O)CCN(CC(=O)O)CC1)C(=O)NC1(C(=O)N[C@@H](Cc2c[nH]c3ccccc23)C(N)=O)CCN(C(=N)N)CC1 [Compound 5] ({DOTA-Ahx}-F[azaGly]L[Api(1-amidino)]W-NH2),10 to 100
6,Cc1ccc(CNCC(=O)N2CCC(NC(=O)[C@H](CC(C)C)NC(=O)NNC(=O)[C@H](Cc3ccccc3)NC(=O)[C@@H](NC(=O)CN3CCC(NC(=O)CN4CCN(CC(=O)O)CCN(CC(=O)O)CCN(CC(=O)O)CC4)CC3)[C@@H](C)O)(C(=O)N[C@@H](Cc3c[nH]c4ccccc34)C(N)=O)CC2)cc1F [Compound 233] ({DOTA}-[X1]TF[azaGly]L[Api](Gly(N-(3-F-4-Me-benzyl)))W-NH2),< 10
7,Cc1ccc(CNCC(=O)N2CCC(NC(=O)[C@H](CC(C)C)NC(=O)NNC(=O)[C@H](Cc3ccccc3)NC(=O)[C@@H](NC(=O)[C@H](CC(N)=O)NC(=O)[C@@H](Cc3ccncc3)NC(=O)[C@@H](Cc3ccc(O)cc3)NC(=O)CN3CCN(CC(=O)O)CCN(CC(=O)O)CCN(CC(=O)O)CC3)[C@@H](C)O)(C(=O)N[C@@H](Cc3ccncc3)C(N)=O)CC2)cc1F [Compound 281] ({DOTA}-[dY][d4Pal]NTF[azaGly]L[Api](Gly(N-(3-F-4-Me-benzyl)))[4Pal]-NH2),< 10
8,COc1ccc(CNCC(=O)N2CCC(NC(=O)[C@@H](CC(C)C)NC(=O)NNC(=O)[C@H](Cc3ccccc3)NC(=O)[C@@H](NC(=O)[C@H](CC(N)=O)NC(=O)[C@H](CCC(=O)O)NC(=O)CN3CCN(CC(=O)O)CCN(CC(=O)O)CCN(CC(=O)O)CC3)[C@@H](C)O)(C(=O)N[C@@H](Cc3ccccc3)C(N)=O)CC2)cc1 [Compound 239] ({DOTA}-ENTF[azaGly][dL][Api](Gly(Nα-4-MeO-benzyl))F-NH2),> 100
